Experimental data as given in patent US4710499A, “New derivatives of pyridazine active on the central nervous system” (priority 1981, dated 1987).
Where a name gives a salt, the structure may show the parent alone. Read-outs that look alike come from different tables or passages of the source.

Assays:
[1] = system: convulsivant effects of bicuculline; assay: Anti-Bicuculline Activity (oral, mice); format: in vivo; details: for ED50: Mus musculus, read-out: Inhibition of the convulsivant effects of Bicuculline ED50
Description: (§1) The anticonvulsivant activity of the derivatives was assessed with respect to two chemical agents: strychnine and bicuculline, and with respect to electric shock. In these various tests, the products were compared with the minaprine described in French Patent 2 141 697 mentioned hereinabove.
Anti-Bicuculline Activity
The products are administered by the oral route 30 minutes before the bicuculline 0.9 mg/kg i.v.. The occurrence of clonic, tonic crises as well as mortality are noted during the 60 minutes following administration of bicuculline.
(§2) In the three cases, the products are administered in a range of doses to batches of 10 mice per dose.

[2] = Acute toxicity, mortality within 24 hours (oral, mice); format: in vivo; details: mouse, in vivo
[3] = system: convulsivant effects of electric shock; assay: Anti-Electric Shock Activity (oral, mice); format: in vivo; details: for ED50: Mus musculus, po, read-out: Inhibition of the convulsivant effects of electric shock ED50; for anti-convulsivant activity with respect to electric shock (in words): oral
Description: The anticonvulsivant activity of the derivatives was assessed with respect to two chemical agents: strychnine and bicuculline, and with respect to electric shock.
Anti-Electric Shock Activity
The electric shock was given to the animal via corneal electrodes. […] The animals not presenting extension of the rear limbs were considered as protected.
as §2

[4] = system: convulsivant effects of strychnine; assay: Anti-Strychnine Activity (oral, mice); format: in vivo; details: for ED50: Mus musculus, po, read-out: Inhibition of the convulsivant effects of Strychinine ED50
Description: as §1
The products are administered by the oral route 30 minutes before the strychnine 0.9 mg/kg i.p.. The occurrence of tetanic crises as well as mortality are noted during the 60 minutes following administration of strychnine.
as §2

[5] = system: mice; assay: Acute toxicity, mortality within 24 hours (oral, mice); format: in vivo; details: for toxic effect at the dose of 500 mg/kg p.os (in words): mouse, in vivo
[6] = per os; cited from earlier work
[7] = 30 minutes before bicuculline 0.9 mg/kg i.v., 10 mice per dose
[8] = mice, oral, 250 mg/kg, 24 hours, read-out: p. cent of mortality at 250 mg/kg
[9] = mice, oral, 500 mg/kg, 24 hours, read-out: p. cent of mortality at 500 mg/kg
[10] = mice, oral, 1000 mg/kg, 24 hours, read-out: p. cent of mortality at 1000 mg/kg
[11] = mice, per os, 30 minutes before electric shock (12.5 volts for 0.5 seconds), corneal electrodes, 10 mice per dose

Cc1cc(-c2ccccc2)nnc1NCCO [CM 30094, 3-(2-HYDROXY ETHYLAMINO)4-METHYL 6-PHENYL PYRIDAZINE]
ED50 [1, 7]: 286 mg/kg | mortality at 24 h [2, 8]: 0% | mortality at 24 h [2, 9]: 0% | mortality at 24 h [2, 10]: 0% | ED50 [3, 11]: 107 mg/kg | ED50 [4]: 119 mg/kg

Cc1cc(-c2ccccc2)nnc1NCC(C)O (stereo not shown) [CM 30096]
anti-convulsivant activity with respect to bicuculline (in words) [1]: still considerable | ED50 [1, 7]: 175 mg/kg | mortality at 24 h ([2]; po, 250 mg/kg): 0% | mortality at 24 h ([2]; po, 500 mg/kg): 20% | mortality at 24 h ([2]; po, 1000 mg/kg): 100% | toxic effect at the dose of 500 mg/kg p.os (in words) [5]: have a toxic effect | ED50 [3, 11]: 209 mg/kg | anti-convulsivant activity with respect to electric shock (in words) ([3]; mice): still considerable | ED50 [4]: 92 mg/kg | anti-convulsivant activity with respect to strychnine (in words) ([4]; mice, oral): particularly powerful

Cc1cc(-c2ccccc2)nnc1NCCCCO [CM 30097]
mortality at 24 h [2, 8]: 0% | mortality at 24 h [2, 9]: 0% | mortality at 24 h [2, 10]: 100%

COCCNc1nnc(-c2ccccc2)cc1C [CM 30310, 3-(2-METHOXY ETHYLAMINO)4-METHYL 6-PHENYL PYRIDAZINE]
ED50 [1, 7]: 136 mg/kg | mortality at 24 h [2, 8]: 0% | mortality at 24 h [2, 9]: 0% | mortality at 24 h [2, 10]: 100% | ED50 [3, 11]: 78 mg/kg | ED50 [4]: 158 mg/kg | anti-convulsivant activity with respect to strychnine (in words) ([4]; mice, oral): particularly powerful

OCCNc1nnc(-c2ccccc2)cc1-c1ccccc1 [CM 30339]
ED50 [1, 7]: 86 mg/kg | mortality at 24 h ([2]; po, 250 mg/kg): 0% | mortality at 24 h ([2]; po, 500 mg/kg): 60% | mortality at 24 h ([2]; po, 1000 mg/kg): 60% | toxic effect at the dose of 500 mg/kg p.os (in words) [5]: have a toxic effect | ED50 [3, 11]: ~200 mg/kg | ED50 [4]: 145 mg/kg | anti-convulsivant activity with respect to strychnine (in words) ([4]; mice, oral): particularly powerful

COCCNc1nnc(-c2ccccc2)cc1-c1ccccc1 [CM 30340, 3-(2-methoxyethylamino)4,6-diphenyl pyridazine]
mortality at 24 h [2, 8]: 0% | mortality at 24 h [2, 9]: 0% | mortality at 24 h [2, 10]: 20%

CCCCNc1nnc(-c2ccccc2)cc1C [CM 30434, 3-BUTYLAMINO 4-METHYL 6-PHENYL PYRIDAZINE]
mortality at 24 h [2, 8]: 0% | mortality at 24 h [2, 9]: 0% | mortality at 24 h [2, 10]: 0%

Cc1cc(-c2ccccc2)nnc1NCCN1CCOCC1 [Minaprine, reference compound]
anti-convulsivant activity with respect to bicuculline (in words) [1]: totally inactive | Inhibition of the convulsivant effects of Bicuculline ED50 [1, 7]: Inactive | mortality ([2]; po, 100 mg/kg): 20% | mortality at 24 h ([2]; po, 250 mg/kg): 100% | mortality at 24 h ([2]; po, 500 mg/kg): 100% | mortality at 24 h ([2]; po, 1000 mg/kg): 100% | toxicity, overall (in words) ([5]; mice, p.os): much greater toxic effect | anti-convulsivant activity with respect to electric shock (in words) ([3]; mice): totally inactive | Inhibition of the convulsivant effects of electric shock ED50 [3, 11]: Inactive | dose at which the product shows itself to be convulsivant [6]: greater than 100 mg/kg | anti-convulsivant activity with respect to strychnine (in words) ([4]; mice, oral): totally inactive | Inhibition of the convulsivant effects of Strychinine ED50 ([4]; mice, oral, 30 minutes before strychnine 0.9 mg/kg i.p., 10 mice per dose): Inactive

CCCC(CCC)C(=O)O [Sodium Valproate, sodium salt of valproic acid, reference compound]
anti-convulsivant activity with respect to bicuculline (in words) [1]: effective dose 50 most often greater than that of the products of the invention | ED50 [1, 7]: 234 mg/kg | ED50 [3]: 290 mg/kg | anti-convulsivant activity with respect to electric shock (in words) ([3]; mice): effective dose 50 most often greater than that of the products of the invention | ED50 [4]: 480 mg/kg | anti-convulsivant activity with respect to strychnine (in words) ([4]; mice, oral): effective dose 50 most often greater than that of the products of the invention
